Measurements published in patent US9200008B2 (ASKA PHARMACEUTICAL CO., LTD., priority 2010, dated 2015).

System: Human prostate cancer cell lines (PC-3 cells)
Experiment: Measurement of cell death-inducing activity (Test Example 1)
Type: cell-based
Settings: PC-3, 48 h, 48 hours after addition, tested at 10, 1, 0.1, 0.025 and 0.00625 μmol/L, qualitative evaluation of 10 fields, read-out: Concentration showing the cell death-inducing activity (cell death-inducing rate not less than 40%)
Procedure, shortened: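 Compound treatment lasted 48 h at 10 to 0.00625 μmol/L (five levels, DMSO as control) on PC-3 cells pre-cultured 48 h at 37 °C, 5% CO2 after seeding at 1×10^5 cells/well. A cell death-inducing rate of 40% or more counted as active.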

SMILES	minimal effective concentration [µM]
CCn1cnc2cc(COC(=O)Nc3cc(-c4ccc(C)cc4OC)nn3C)ccc21 [Example 9-228]	0.00625
COc1cc(Cl)ccc1-c1nc(C)c(COC(=O)Nc2ccc3c(c2)ncn3C)s1 [Example 13-5]	0.1
CCn1c(C)nc2cc(COC(=O)Nc3sc(-c4ccccc4OC)nc3C)ccc21 [Example 9-85]	1
CCn1nc(-c2ccc(Cl)cc2Cl)cc1NC(=O)OCc1ccc2c(c1)ncn2CC [Example 9-210]	0.1
CCc1nc(-c2ccc(C)cc2OC)sc1NC(=O)OCc1ccc2c(c1)nc1n2CCC1 [Example 9-171]	0.025
COc1cc(C)ccc1-c1cc(COC(=O)Nc2ccc3c(c2)nc2n3CCCC2)n(C)n1 [Example 13-120]	0.025
COc1ccccc1-c1ncc(NC(=O)OCc2ccc3c(c2)ncn3C)s1 [Example 9-178]	10
CCc1nc(-c2ccc(C)cc2C)sc1NC(=O)OCc1ccc2c(c1)nc1n2CCCC1 [Example 9-354]	1
Cc1cc(Cl)ccc1-c1nc(C(F)(F)F)c(NC(=O)OCc2ccc3c(c2)ncn3C)s1 [Example 9-186]	1
CCn1cc2ccc(COC(=O)Nc3cc(-c4ccc(C)cc4C)nn3C)cc2n1 [Example 9-304]	1
Cc1cc(Cl)ccc1-c1nc(C)c(NC(=O)OCc2ccc3c(c2)nc(C)n3C)s1 [Example 9-81]	0.025
CCc1ccccc1-c1nc(C)c(NC(=O)OCc2ccc3c(c2)nc2n3CCC2)s1 [Example 9-100]	0.1
Cc1cc(Cl)ccc1-c1nc(C)c(COC(=O)Nc2ccc3c(c2)nnn3C)s1 [Example 13-3]	0.1
Cc1cc(Cl)ccc1-c1nc(C)c(COC(=O)Nc2ccc3c(c2)nc2n3CCCCC2)s1 [Example 13-39]	1
O=C(N/N=C/c1ccc([N+](=O)[O-])c(O)c1)c1cc(-c2ccc(Cl)cc2Cl)n[nH]1 [Example 21-15]	10
CCn1cnc2cc(NC(=O)OCc3sc(-c4ccc(C)cc4C)nc3C)ccc21 [Example 13-15]	0.025
CCn1c(C)nc2cc(COC(=O)Nc3sc(-c4ccc(C)cc4OC)nc3C)ccc21 [Example 9-87]	0.025
COc1ccc(CN(C)NC(=O)c2sc(-c3ccc(Cl)cc3C)nc2C)cc1 [Example 16-6]	0.1
COc1ccccc1-c1cc(COC(=O)Nc2ccc3c(c2)ncn3C)n(C)n1 [Example 13-76]	0.025
CCn1cnc2cc(COC(=O)Nc3sc(-c4ccc(Cl)cc4OC)nc3C)ccc21 [Example 9-59]	0.00625
Cc1ccc(-c2nc(C)c(NC(=O)OCc3ccc4c(c3)CCO4)s2)c(C)c1 [Example 9-8]	10
COc1cc(F)ccc1-c1nc(C)c(NC(=O)OCc2ccc3c(c2)nnn3C)s1 [Example 9-14]	0.025
COc1cccc(/C=N/NC(=O)c2sc(-c3ccc(Cl)cc3)nc2C)c1O [Example 23-60]	10

SMILES	minimal effective concentration [µM]
CCn1nc(-c2ccc(Cl)cc2OC)cc1COC(=O)Nc1ccc2c(c1)nc1n2CCCC1 [Example 13-119]	0.025
COc1cc(Cl)ccc1-c1nc(C)c(COC(=O)Nc2ccc3c(c2)nc2n3CCCC2)s1 [Example 13-31]	1
COc1cc(Cl)ccc1-c1cc(C(=O)N/N=C/c2cc(C)c(O)c(C)c2)[nH]n1 [Example 22-9]	0.1
CCn1cnc2cc(COC(=O)Nc3sc(-c4ccc(Cl)cc4C)nc3C)ccc21 [Example 9-64]	0.00625
COc1cc(C)ccc1-c1nc(C)c(NC(=O)OCc2ccc3c(c2)nc2n3CCC(O)C2)s1 (centres unmarked) [Example 9-342]	1
O=C(N/N=C/c1ccc(O)c(Cl)c1)c1cc(-c2ccc(Cl)cc2Cl)n[nH]1 [Example 21-13]	10
O=C(Nc1ccc2c(c1)nc1n2CCCC1)OCc1cc(-c2ccc(Cl)cc2Cl)ns1 [Example 47-8]	1
CCn1ncc2cc(NC(=O)OCc3sc(-c4ccc(C)cc4C)nc3C)ccc21 [Example 13-45]	0.1
CCN(Cc1ccc(OC)cc1)NC(=O)c1sc(-c2cccc(C)c2C)nc1C [Example 16-14]	10
CCn1ncc2cc(COC(=O)Nc3sc(-c4ccc(F)cc4C)nc3C)ccc21 [Example 9-140]	0.025
COc1ccc(/C=N/NC(=O)c2cc(-c3ccc(Cl)cc3OC)cn2C)cc1O [Example 23-170, 4-(4-Chloro-2-methoxyphenyl)-1-methyl-1H-pyrrole-2-carboxylic acid (3-hydroxy-4-methoxybenzylidene)hydrazide]	10
CCn1nc(-c2ccccc2OC)cc1NC(=O)OCc1ccc2c(c1)ncn2C [Example 9-214]	0.1
Cc1cc(Cl)ccc1-c1nc(C)c(NC(=O)OCc2ccc3c(c2)nc2n3C(C)CCC2)s1 (centres unmarked) [Example 9-119]	10
Cc1ccc(-c2nc(C)c(C(=O)N/N=C/c3cc(C)c(O)c(C)c3)s2)c(C)c1 [Example 23-122]	0.1
COc1ccc(CN(C)NC(=O)c2sc(-c3ccc(Cl)cc3C)nc2C)cc1O [Example 16-25]	0.1
COc1cc(Cl)ccc1-c1nc(C)c(C(=O)N/N=C/c2cccc3[nH]ccc23)s1 [Example 23-94]	1
COc1ccc(CN(C)NC(=O)c2sc(-c3ccccc3OC)nc2C)cc1 [Example 16-4]	1
Cc1cc(/C=N/NC(=O)c2cc(-c3ccc(Cl)cc3)oc2C)cc(C)c1O [Example 23-167, 5-(4-Chlorophenyl)-2-methylfuran-3-carboxylic acid [1-(4-hydroxy-3,5-dimethylphenyl)methylidene]hydrazide]	1
Cc1cc(/C=N/NC(=O)c2cc(-c3ccc(Cl)cc3Cl)ns2)cc(C)c1O [Example 27-4]	1
COc1cc(Cl)ccc1-c1cc(COC(=O)Nc2ccc3c(c2)nc2n3CCCC2)n(C)n1 [Example 13-118]	0.00625
COc1ccc(CN(C)NC(=O)c2sc(-c3ccc(F)cc3OC)nc2C)cc1 [Example 16-8]	0.1
Cc1ccc(-c2cc(NC(=O)OCc3ccc4c(c3)nc3n4CCCC3)n(C)n2)c(C)c1 [Example 9-271]	0.1
COc1cc(Cl)ccc1-c1nc(C)c(NC(=O)OCc2ccc3nc(C)c(C)nc3c2)s1 [Example 9-200]	1

SMILES	minimal effective concentration [µM]
COc1ccc(/C=N/NC(=O)c2sc(-c3ccc(Cl)cc3)nc2C(C)(C)C)cc1O [Example 23-20]	10
CCn1nnc2cc(COC(=O)Nc3sc(-c4ccc(C)cc4C)nc3C)ccc21 [Example 9-26]	0.025
CCn1nc(-c2ccccc2OC)cc1COC(=O)Nc1ccc2c(c1)ncn2C [Example 13-77]	0.1
COc1cc(C)ccc1-c1nc(C)c(NC(=O)OCc2ccc3c(c2)nc2n3CCC(C)C2)s1 (centres unmarked) [Example 9-121]	1
Cc1ccc(-c2cc(NC(=O)OCc3ccc4c(c3)ncn4C)n(C)n2)c(C)c1 [Example 9-233]	0.00625
COc1ccc(CN(C)NC(=O)c2sc(-c3ccccc3C)nc2C)cc1 [Example 16-3]	1
COc1ccc(/C=N/NC(=O)c2sc(-c3scnc3C)nc2C)cc1O [Example 23-137]	1
CCc1ccccc1-c1nc(C)c(NC(=O)OCc2ccc3c(c2)nc(C)n3CC)s1 [Example 9-84]	1
COc1cc(F)ccc1-c1nc(C)c(NC(=O)OCc2ccc3c(c2)nc2n3C(C)CCC2)s1 (centres unmarked) [Example 9-116]	10
CCc1nc(-c2ccc(Cl)cc2)sc1C(=O)N/N=C/c1ccc(OC)c(O)c1 [Example 23-100]	1
COc1cc(Cl)ccc1-c1nc(C)c(NC(=O)OCc2ccc3c(c2)nc2n3CCOC2)s1 [Example 9-93]	0.00625
COc1ccc(/C=N/NC(=O)c2[nH]c(-c3ccc(Cl)cc3)nc2C)cc1O [Example 25-5, 2-(4-Chlorophenyl)-5-methyl-3H-imidazole-4-carboxylic acid[1-(3-hydroxy-4-methoxyphenyl)methylidene]hydrazide]	10
CCn1ncc2cc(COC(=O)Nc3sc(-c4ccc(OC)cc4OC)nc3C)ccc21 [Example 9-138]	0.025
COc1cc(C)ccc1-c1cc(NC(=O)OCc2ccc3c(c2)nc2n3CCCC2)n(C)n1 [Example 9-269]	0.1
CCc1nc(-c2ccc(Cl)cc2OC)sc1NC(=O)OCc1ccc2c(c1)ncn2CC [Example 9-164]	0.025
COc1ccc(CN(C)NC(=O)c2cc(-c3ccccc3OC)oc2C)cc1 [Example 20-1, 5-(2-Methoxyphenyl)-2-methylfuran-3-carboxylic acid N′-(4-methoxybenzyl)-N′-methyl hydrazide]	10
COc1ccc(/C=N/NC(=O)c2sc(-c3ccccc3F)nc2C)cc1O [Example 23-71]	1
CCn1nc(-c2ccc(C)cc2OC)cc1NC(=O)OCc1ccc2c(c1)nc1n2CCCC1 [Example 9-270]	0.1
COc1cc(Cl)ccc1-c1cc(C(=O)N/N=C/c2ccc3c(c2)ncn3C)[nH]n1 [Example 22-10]	0.1
CCn1c(C)nc2cc(NC(=O)OCc3sc(-c4ccc(C)cc4C)nc3C)ccc21 [Example 13-20]	1
CCn1cc2cc(COC(=O)Nc3sc(-c4ccc(Cl)cc4OC)nc3C)ccc2n1 [Example 9-154]	0.025
Cc1ccc(-c2cc(NC(=O)OCc3ccc4c(c3)nc3n4CCC3)n(C)n2)c(C)c1 [Example 9-260]	0.025
